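Tested at 5 concentrations; 48 h exposure; 96-well plates; endpoints linearly interpolated, else capped at highest concentration. GI50: concentration for 50% inhibition of growth.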 Activity calls are given as the source filed them. No stated cut-off is given here; in the data, active = GI50 up to about 1.1 µM and inactive = higher.
Assays:
Assay in all cases: NCI-60 cell line screen, 48 h
T47D = system: T47D
HOP-92 = system: HOP-92
786-0 = system: 786-0
COLO 205 = system: COLO 205
OVCAR-3 = system: OVCAR-3
MOLT-4 = system: MOLT-4
SK-MEL-28 = system: SK-MEL-28
SN12C = system: SN12C
KM12 = system: KM12
Malme-3M = system: Malme-3M
CAKI-1 = system: CAKI-1
MDA-MB-435 = system: MDA-MB-435
OVCAR-8 = system: OVCAR-8
SNB-75 = system: SNB-75
SK-MEL-5 = system: SK-MEL-5
UACC-62 = system: UACC-62
HT-29 = system: HT-29
UO-31 = system: UO-31
HL-60 = system: HL-60
NCI-H522 = system: NCI-H522
RPMI-8226 = system: RPMI-8226
CCRF-CEM = system: CCRF-CEM
LOX IMVI = system: LOX IMVI
UACC-257 = system: UACC-257
MDA-MB-231 = system: MDA-MB-231
K562 = system: K562
Hs-578T = system: Hs-578T
SW-620 = system: SW-620
ACHN = system: ACHN
IGROV-1 = system: IGROV-1
TK-10 = system: TK-10
MCF7 = system: MCF7
HCT-15 = system: HCT-15
HOP-62 = system: HOP-62
RXF 393 = system: RXF 393
SF-268 = system: SF-268
SK-MEL-2 = system: SK-MEL-2
HCT-116 = system: HCT-116
HCC 2998 = system: HCC 2998
MDA-N = system: MDA-N
PC-3 = system: PC-3
SF-295 = system: SF-295
SNB-19 = system: SNB-19
SF-539 = system: SF-539
A549 = system: A549
NCI-H23 = system: NCI-H23
U-251 = system: U-251
SR = system: SR
DU-145 = system: DU-145
SK-OV-3 = system: SK-OV-3
EKVX = system: EKVX
A498 = system: A498
NCI/ADR-RES = system: NCI/ADR-RES
NCI-H226 = system: NCI-H226
M14 = system: M14
NCI-H460 = system: NCI-H460
OVCAR-4 = system: OVCAR-4
OVCAR-5 = system: OVCAR-5

OC(C/C=N/N=C/CC(O)(C(F)(F)Cl)C(F)(F)Cl)(C(F)(F)Cl)C(F)(F)Cl
GI50 (T47D): > 10 µM (inactive) | GI50 (HOP-92): 7.19 µM (inactive) | GI50 (786-0): > 10 µM (inactive) | GI50 (COLO 205): > 10 µM (inactive) | GI50 (OVCAR-3): > 10 µM (inactive) | GI50 (MOLT-4): > 10 µM (inactive) | GI50 (SK-MEL-28): > 10 µM (inactive) | GI50 (SN12C): > 10 µM (inactive) | GI50 (KM12): > 10 µM (inactive) | GI50 (Malme-3M): > 10 µM (inactive) | GI50 (CAKI-1): > 10 µM (inactive) | GI50 (MDA-MB-435): > 10 µM (inactive) | GI50 (OVCAR-8): > 10 µM (inactive) | GI50 (SNB-75): > 10 µM (inactive) | GI50 (SK-MEL-5): > 10 µM (inactive) | GI50 (UACC-62): > 10 µM (inactive) | GI50 (HT-29): > 10 µM (inactive) | GI50 (UO-31): > 10 µM (inactive) | GI50 (HL-60): > 10 µM (inactive) | GI50 (NCI-H522): > 10 µM (inactive) | GI50 (RPMI-8226): > 10 µM (inactive) | GI50 (CCRF-CEM): > 10 µM (inactive) | GI50 (LOX IMVI): > 10 µM (inactive) | GI50 (UACC-257): > 10 µM (inactive) | GI50 (MDA-MB-231): > 10 µM (inactive) | GI50 (K562): > 10 µM (inactive) | GI50 (Hs-578T): > 10 µM (inactive) | GI50 (SW-620): > 10 µM (inactive) | GI50 (ACHN): > 10 µM (inactive) | GI50 (IGROV-1): > 10 µM (inactive) | GI50 (TK-10): > 10 µM (inactive) | GI50 (MCF7): > 10 µM (inactive) | GI50 (HCT-15): > 10 µM | GI50 (HOP-62): > 10 µM (inactive) | GI50 (RXF 393): > 10 µM (inactive) | GI50 (SF-268): > 10 µM (inactive) | GI50 (SK-MEL-2): > 10 µM (inactive) | GI50 (HCT-116): > 10 µM (inactive) | GI50 (HCC 2998): > 10 µM (inactive) | GI50 (MDA-N): > 10 µM (inactive) | GI50 (PC-3): > 10 µM (inactive) | GI50 (SF-295): > 10 µM (inactive) | GI50 (SNB-19): > 10 µM (inactive) | GI50 (SF-539): > 10 µM (inactive) | GI50 (A549): > 10 µM (inactive) | GI50 (NCI-H23): > 10 µM (inactive) | GI50 (U-251): > 10 µM (inactive) | GI50 (SR): > 10 µM (inactive) | GI50 (DU-145): > 10 µM (inactive) | GI50 (SK-OV-3): > 10 µM (inactive) | GI50 (EKVX): > 10 µM (inactive) | GI50 (A498): > 10 µM (inactive) | GI50 (NCI/ADR-RES): > 10 µM (inactive) | GI50 (NCI-H226): > 10 µM (inactive) | GI50 (M14): > 10 µM (inactive) | GI50 (NCI-H460): > 10 µM (inactive) | GI50 (OVCAR-4): > 10 µM (inactive)

CCCCNC(=O)OCCN=C1c2ccccc2C(Br)C(Br)c2ccccc21 (stereo unspecified)
GI50 (T47D): 33.8 µM (inactive) | GI50 (HOP-92): 4.46 µM (inactive) | GI50 (786-0): 14.6 µM (inactive) | GI50 (COLO 205): 20.2 µM (inactive) | GI50 (OVCAR-3): 19.9 µM (inactive) | GI50 (MOLT-4): 24.9 µM (inactive) | GI50 (SK-MEL-28): 35.4 µM (inactive) | GI50 (SN12C): 32.9 µM (inactive) | GI50 (KM12): 45.6 µM (inactive) | GI50 (Malme-3M): 23.3 µM (inactive) | GI50 (CAKI-1): 25.6 µM (inactive) | GI50 (MDA-MB-435): 21 µM (inactive) | GI50 (OVCAR-8): 27.6 µM (inactive) | GI50 (SNB-75): 30.5 µM (inactive) | GI50 (SK-MEL-5): 18.7 µM (inactive) | GI50 (UACC-62): > 100 µM (inactive) | GI50 (HT-29): 12.5 µM (inactive) | GI50 (HL-60): 9.04 µM (inactive) | GI50 (NCI-H522): 22.2 µM (inactive) | GI50 (RPMI-8226): 22.5 µM (inactive) | GI50 (CCRF-CEM): 10.1 µM (inactive) | GI50 (LOX IMVI): 20 µM (inactive) | GI50 (UACC-257): 26.8 µM (inactive) | GI50 (MDA-MB-231): 29.4 µM (inactive) | GI50 (K562): 29.9 µM (inactive) | GI50 (Hs-578T): 36.1 µM (inactive) | GI50 (SW-620): 40.2 µM (inactive) | GI50 (ACHN): 24.2 µM (inactive) | GI50 (IGROV-1): 49.8 µM (inactive) | GI50 (TK-10): 25.4 µM (inactive) | GI50 (OVCAR-5): > 100 µM (inactive) | GI50 (MCF7): 58.2 µM (inactive) | GI50 (HCT-15): 16 µM | GI50 (HOP-62): 25.9 µM (inactive) | GI50 (RXF 393): 14.3 µM (inactive) | GI50 (SF-268): 32.3 µM (inactive) | GI50 (SK-MEL-2): 42.9 µM (inactive) | GI50 (HCT-116): 23.3 µM (inactive) | GI50 (HCC 2998): > 100 µM (inactive) | GI50 (MDA-N): 15.2 µM (inactive) | GI50 (PC-3): 36.9 µM (inactive) | GI50 (SF-295): 87.7 µM (inactive) | GI50 (SNB-19): 24.9 µM (inactive) | GI50 (SF-539): 29.9 µM (inactive) | GI50 (A549): 83.9 µM (inactive) | GI50 (NCI-H23): 26.3 µM (inactive) | GI50 (U-251): 23.2 µM (inactive) | GI50 (SR): 21.3 µM (inactive) | GI50 (DU-145): 41.3 µM (inactive) | GI50 (SK-OV-3): 32.1 µM (inactive) | GI50 (EKVX): 20.3 µM (inactive) | GI50 (A498): 41.5 µM (inactive) | GI50 (NCI/ADR-RES): 19.9 µM (inactive) | GI50 (NCI-H226): 76.9 µM (inactive) | GI50 (M14): 19.4 µM (inactive) | GI50 (NCI-H460): 54.6 µM (inactive) | GI50 (OVCAR-4): 23.8 µM (inactive)

COC(=O)C(=CNC(N)=O)C(=O)OC
GI50 (T47D): > 100 µM (inactive) | GI50 (HOP-92): > 100 µM (inactive) | GI50 (786-0): > 100 µM (inactive) | GI50 (COLO 205): > 100 µM (inactive) | GI50 (OVCAR-3): > 100 µM (inactive) | GI50 (MOLT-4): > 100 µM (inactive) | GI50 (SK-MEL-28): > 100 µM (inactive) | GI50 (SN12C): > 100 µM (inactive) | GI50 (KM12): > 100 µM (inactive) | GI50 (CAKI-1): > 100 µM (inactive) | GI50 (MDA-MB-435): > 100 µM (inactive) | GI50 (OVCAR-8): > 100 µM (inactive) | GI50 (SK-MEL-5): > 100 µM (inactive) | GI50 (UACC-62): > 100 µM (inactive) | GI50 (HT-29): > 100 µM (inactive) | GI50 (UO-31): > 100 µM (inactive) | GI50 (NCI-H522): > 100 µM (inactive) | GI50 (RPMI-8226): > 100 µM (inactive) | GI50 (CCRF-CEM): > 100 µM (inactive) | GI50 (LOX IMVI): > 100 µM (inactive) | GI50 (UACC-257): > 100 µM (inactive) | GI50 (K562): > 100 µM (inactive) | GI50 (Hs-578T): 63.4 µM (inactive) | GI50 (SW-620): > 100 µM (inactive) | GI50 (ACHN): > 100 µM (inactive) | GI50 (IGROV-1): > 100 µM (inactive) | GI50 (TK-10): > 100 µM (inactive) | GI50 (OVCAR-5): > 100 µM (inactive) | GI50 (MCF7): > 100 µM (inactive) | GI50 (HCT-15): > 100 µM | GI50 (HOP-62): > 100 µM (inactive) | GI50 (SF-268): > 100 µM (inactive) | GI50 (SK-MEL-2): > 100 µM (inactive) | GI50 (HCT-116): > 100 µM (inactive) | GI50 (MDA-N): > 100 µM (inactive) | GI50 (PC-3): > 100 µM (inactive) | GI50 (SF-295): > 100 µM (inactive) | GI50 (SNB-19): > 100 µM (inactive) | GI50 (SF-539): > 100 µM (inactive) | GI50 (A549): > 100 µM (inactive) | GI50 (NCI-H23): > 100 µM (inactive) | GI50 (SR): > 100 µM (inactive) | GI50 (DU-145): > 100 µM (inactive) | GI50 (EKVX): > 100 µM (inactive) | GI50 (NCI/ADR-RES): > 100 µM (inactive) | GI50 (M14): > 100 µM (inactive) | GI50 (NCI-H460): > 100 µM (inactive)
